Source: patent EP0356192A2, “Prevention & treatment of liver abscesses in animals” (SMITHKLINE BEECHAM CORPORATION, priority 1988, dated 1990)
Converted amounts (≈) assume the structure as drawn. “And” between values parts separate entries of the source, which are not always exact repeats. Equal entries are not always repeated. Where two headings read alike, the source gives them in different places.

Experiments:
[1] = tested on: Fusobacterium necrophorum ATCC 27852; assay: MIC by agar dilution method (Wilkins-Chalgren Agar); type: cell-based
Description: (§1) In this example, microbiological studies were initiated with Virginiamycin and other antibiotics so as to determine their potency in controlling liver abscesses. As Fusobacterium necrophorum has been associated with bovine liver abscesses in cattle, it was determined that microbiological studies involving this bacterium would be undertaken with representative examples of antibiotics including Virginiamycin.
(§2) The MIC's for Fusobacterium necrophorum was done by the agar dilution method. Two-fold serial dilutions of each compound was incorporated into Wilkins-Chalgren Agar plates. Each Fusobacterium necrophorum was propagated in Peptone-Yeast-Glucose broth and inoculated onto the plates with a multipoint inoculating device. The plates were incubated at 37°C in an atmosphere of 10% H₂, 5% CO₂ and 85% N₂, for 40 hours.

[2] = tested on: Fusobacterium necrophorum ATCC 25286; assay: as above; type: cell-based
Description: as §1, §2

[3] = tested on: Fusobacterium necrophorum; assay: MIC of Virginiamycin and ionophores alone and combined at fixed ratios, two-fold serial dilution of a stock solution; type: cell-based; conditions: for MIC Alone: antibiotic alone; for MIC: Fusobacterium necrophorum, read-out: MIC Alone
Description: In this example, microbiological studies were initiated with combinations of antibiotics from the Virginiamycin family of antibiotics and ionophore family of antibiotics so as to determine their potency in controlling liver abscesses. As Fusobacterium necrophorum has been associated with bovine liver abscess in cattle, it was determined that microbiological studies involving this bacterium would be undertaken. Since the liver abscess etiology is poorly defined, it is difficult to precisely extrapolate these studies to animal disease. […]
Virginiamycin was combined with an antibiotic from the ionophore family in a ratio expected in medicated feeds, eg. Salinomycin at 20 g/Ton and Virginamycin at 15 g/Ton have a ratio of 1.3:1. For the microbilogical studies, a stock solution was made up to contain Salinomycin and Virginiamycin in the same ratio of 1.3:1. The stock solution was serially diluted two fold. The dilutions were incubated with F. necr. The end point was the lowest concentrations antibiotics which inhibited the growth of F. necr., or MIC for minimal inhibitory concentration, eg. the MIC of Salinomycin was 5 µg/ml while that of Virginiamycin was 1 µg/ml.

[4] = tested on: Fusobacterium necrophorum Colorado Strain; assay: MIC by agar dilution method (Wilkins-Chalgren Agar); type: cell-based
Description: as §1, §2

[5] = tested on: liver abscess; assay: Incidence of liver abscess at slaughter in cattle fed a ration supplemented with Virginiamycin; type: in vivo; conditions: for No. of Animals With Liver Abscess: ad libitum, approximately 120 days, Total Animals 197 (control 26 of 199); for No. of Animals Without Liver Abscess: Total Animals 197
Description: A cattle ration was prepared using the following formula: […]
The ration was supplemented with varying proportions of Virginiamycin and fed, ad libitum, to approximately 200 cattle weighing between 650 lbs. and 850 lbs. The cattle were processed according to standard procedures for the facility, individually weighed and identified. The treatments were continued until the cattle reached an approximate weight of 1100 lbs. (approximately 120 days).
Virginiamycin was added to the ration in the following amounts: Table 2
At slaughter, livers were identified with the individual animal number and scored for liver abscess after examination in the manner required by USDA. Livers were palpated and suspicious area were excised and examined for the presence of liver abscesses.

[6] = tested on: Fusobacterium necrophorum (the two ATCC strains); assay: MIC of factors M and S of virginiamycin, one experiment, two ATCC strains taken together; type: cell-based; conditions: geometric mean for the two ATCC strains
Description: as §2
In the one experiment in which factors M and S of virginiamycin were tested, the MICs were 0.35 (geometric mean for the two ATCC strains) and greater than 32 µg/ml, respectively. Virginiamycin contains 75% of Factor M and 25% of Factor S.

[7] = Fusobacterium necrophorum, ATCC27852, 40 h
[8] = Fusobacterium necrophorum, ATCC25286, 40 h
[9] = Fasalocid : Virginiamycin, ratio 2:1
[10] = Fasalocid : Virginiamycin, ratio 3:1
[11] = Fusobacterium necrophorum, 40 h
[12] = strain ATCC 27852, 37°C, anaerobic atmosphere, 40 hours, * = geometric mean of more than one determination
[13] = strain ATCC 25286, 37°C, anaerobic atmosphere, 40 hours, * = geometric mean of more than one determination
[14] = Ferrensinmycin : Virginiamycin, ratio 1.3:1

Work on `CN(C)[C@@H]1C(O)=C(C(N)=O)C(=O)[C@@]2(O)C(O)=C3C(=O)c4c(O)ccc(Cl)c4[C@@](C)(O)[C@H]3C[C@@H]12` [Chlortetracycline] yielded an MIC [1, 7] of 0.12 µg/mL (≈ 0.251 µM) and an MIC [2, 8] of 0.02 µg/mL (≈ 0.0418 µM).
Work on `CC[C@H]1OC(=O)[C@H](C)[C@@H](O[C@H]2C[C@@](C)(OC)[C@@H](O)[C@H](C)O2)[C@H](C)[C@@H](O[C@@H]2O[C@H](C)C[C@H](N(C)C)[C@H]2O)[C@](C)(O)C[C@@H](C)C(=O)[C@H](C)[C@@H](O)[C@]1(C)O` [Erythromycin] yielded an MIC [2, 8] of 8 µg/mL (≈ 10.9 µM).
`CC[C@@H](C(=O)[C@@H](C)[C@@H](O)[C@H](C)CCc1ccc(C)c(O)c1C(=O)O)[C@H]1O[C@](CC)([C@H]2CC[C@](O)(CC)[C@H](C)O2)C[C@@H]1C` [Fasalocid] was tested, and the “MIC Combination” value [3, 9] was 1 µg/mL, the “MIC Combination” value [3, 10] was 3 µg/mL and the “MIC Alone” value [3] was 7 µg/mL and 10 µg/mL.
Compound `CC[C@@H](C(=O)[C@@H](C)[C@@H](O)[C@H](C)CCc1ccc(C)c(O)c1C(=O)O)[C@H]1O[C@](CC)([C@H]2CC[C@](O)(CC)[C@H](C)O2)C[C@@H]1C` [Lasalocid] has an MIC [4, 11] of 8.5 µg/mL (≈ 14.4 µM), an MIC [1, 7] of 12 µg/mL (≈ 20.3 µM) and an MIC [2, 8] of 9.1 µg/mL (≈ 15.4 µM).
With `CC[C@@]1([C@@H]2O[C@@H]([C@H]3O[C@@](O)(CO)[C@H](C)C[C@@H]3C)C[C@@H]2C)CC[C@H]([C@]2(C)CC[C@]3(C[C@H](O)[C@@H](C)[C@@H]([C@@H](C)[C@@H](OC)[C@H](C)C(=O)O)O3)O2)O1` [Monensin] the MIC [4, 11] was 4.2 µg/mL (≈ 6.26 µM), the MIC [1, 7] was 3 µg/mL (≈ 4.47 µM) and the MIC [2, 8] was 6.4 µg/mL (≈ 9.54 µM). The MIC [3] was 4 µg/mL.
With `CN(C)[C@@H]1C(=O)C(C(N)=O)=C(O)[C@@]2(O)C(=O)C3=C(O)c4c(O)cccc4[C@@](C)(O)[C@H]3[C@H](O)[C@@H]12` [Oxytetracyline, Oxytetracycline] the MIC [1, 7] was 0.25 µg/mL (≈ 0.543 µM) and the MIC [2, 8] was 0.03 µg/mL (≈ 0.0652 µM).
`CC[C@@H](C(=O)[C@@H](C)[C@@H](O)[C@H](C)[C@@H]1O[C@@H]([C@@H](CC)C(=O)O)CC[C@@H]1C)[C@H]1O[C@]2(C=C[C@@H](O)[C@]3(CC[C@@](C)([C@H]4CC[C@](O)(CC)[C@H](C)O4)O3)O2)[C@H](C)C[C@@H]1C` [Salinomycin] was tested, and the MIC [4, 11] was 5.7 µg/mL (≈ 7.59 µM), the MIC [1, 7] was 4 µg/mL (≈ 5.33 µM) and the MIC [2, 8] was 3.6 µg/mL (≈ 4.79 µM). For the same compound, the “decrease in the MIC on combination” value [3] was 250 fold and the MIC [3] was 5 µg/mL.
Work on `CC[C@H]1OC(=O)C[C@@H](O)[C@H](C)[C@@H](O[C@@H]2O[C@H](C)[C@@H](O[C@H]3C[C@@](C)(O)[C@@H](O)[C@H](C)O3)[C@H](N(C)C)[C@H]2O)[C@@H](CC=O)C[C@@H](C)C(=O)/C=C/C(C)=C/[C@@H]1CO[C@@H]1O[C@H](C)[C@@H](O)[C@@H](OC)[C@H]1OC` [Tylosin] yielded an MIC [4, 11] of 1 µg/mL (≈ 1.09 µM), an MIC [1, 7] of 1.4 µg/mL (≈ 1.53 µM) and an MIC [2, 8] of 0.8 µg/mL (≈ 0.873 µM).
Work on Avoparcin yielded an MIC [1, 12] of 64.0 µg/mL and an MIC [2, 13] of 32.0 µg/mL.
For Ferrensinmycin, the “MIC Combination” value [3, 14] was 0.6 µg/mL and the “MIC Alone” value [3] was 0.5 µg/mL.
With Flavomycin the MIC [1, 12] was 0.12 µg/mL and the MIC [2, 13] was 0.25 µg/mL.
In the case of Virginiamycin, the MIC ([4]; Colorado Strain, 37°C, anaerobic atmosphere, 40 hours, * = geometric mean of more than one determination) is reported as 1.0* µg/ml, the “effectiveness compared with Tylosin” value ([1]; strain ATCC 27852, from MICs) is reported as “twice as effective as Tylosin” and the MIC [1, 12] is reported as 1.0* µg/ml. The MIC [2, 13] was 0.9* µg/ml, the “No. of Animals With Liver Abscess” value ([5]; Vm 9.1 grams/ton in ration) was 16 and the “No. of Animals Without Liver Abscess” value ([5]; Vm 9.1 grams/ton in ration) was 181. The “No. of Animals With Liver Abscess” value ([5]; Vm 22.7 grams/ton in ration) was 12, the “No. of Animals Without Liver Abscess” value ([5]; Vm 22.7 grams/ton in ration) was 185 and the “No. of Animals With Liver Abscess” value ([5]; Vm 45.5 grams/ton in ration) was 6. For the same compound, the “No. of Animals Without Liver Abscess” value ([5]; Vm 45.5 grams/ton in ration) was 191, the “effect on the incidence of liver abscess” value ([5]; all dose groups vs control, Chi-Square Goodness of Fit) was “obvious beneficial effect” and the “MIC Combination” value [3, 9] was 1 µg/mL. The “MIC Combination” value [3, 10] was 0.9 µg/mL, the “MIC Combination” value [3, 14] was 0.5 µg/mL and the “MIC Combination” value ([3]; Monensin : Virginiamycin, ratio 0.7:1) was 0.5 µg/mL. The “MIC Combination” value ([3]; Monensin : Virginiamycin, ratio 2:1) was 0.01 µg/mL, the “MIC Combination” value ([3]; Monensin : Virginiamycin, ratio 3:1) was 0.7 µg/mL and the “MIC Combination” value ([3]; Salinomycin : Virginiamycin, ratio 1:1) was 0.7 µg/mL. For the same compound, the “MIC Combination” value ([3]; Salinomycin : Virginiamycin, ratio 1.3:1) was 0.02 µg/mL, the “decrease in the MIC on combination” value ([3]; Salinomycin : Virginiamycin, ratio 1.3:1, vs alone) was 50 fold and the “MIC Alone” value [3] was 0.7 µg/mL.
In the case of Virginiamycin factor M, the MIC [1, 12] is reported as 0.25 µg/mL, the MIC [2, 13] is reported as 0.5 µg/mL and the MIC [6] is reported as 0.35 µg/mL.
For Zinc bacitracin, the MIC [1, 12] was 9.2 µg/mL.
